Results published in article PMC5427163, “Simple and cost-effective liquid chromatography-mass spectrometry method to measure dabrafenib quantitatively and six metabolites semi-quantitatively in human plasma” (Analytical and Bioanalytical Chemistry, 2017).
Marks after values point to notes of the source that are not given here.

Assays:
[1] = LC-MS/MS measurement of dabrafenib and metabolites in patient plasma at steady state; assay type: in vivo, human; conditions: for Plasma concentration in typical patient sample: Fig. 3, single patient sample; for Diff (difference between the highest and lowest concentrations) / Median C (plasma concentration) / Range of plasma concentration: patient plasma, steady state, dabrafenib 150 mg BID orally
Experimental: Seven blood samples were obtained between 14 and 17 h after last dose from four different patients with disseminated melanoma after 1, 2, or 3 months of treatment with dabrafenib at the full recommended dose of 150 mg BID orally. […] Plasma was collected after centrifugation, immediately frozen, and stored at −80 °C until analysis. The study protocol was approved by the Ethical Review Board in Stockholm (DNR 2011/1980-31/1) and written informed consent was obtained from patients prior to study entry. Drug-free ethylenediaminetetraacetic acid (EDTA) plasma was donated from six volunteers (three males and three females) with an average age of 26 (22–30) years.
Fifty microliters aliquots of plasma was thawed and precipitated with 200 μL of internal standard mixture containing erlotinib-d6 (200 ng/mL) in acetonitrile. Following vortex mixing, the samples were centrifuged (17530 RCF, 5 min, 4 °C). The supernatant (150 μL) was mixed with 150 μL water and transferred to a 0.7-mL 96-well plate.
Calibration standards for dabrafenib were prepared at seven levels in the concentration range 5–5000 ng/mL (5-15-60-250-1000-3750-5000) by diluting the corresponding working stock solutions 1:10 with drug-free plasma. The upper limit of quantification (ULOQ) was selected based on the highest expected dabrafenib concentration, and the lower limit of quantification (LLOQ) was selected based on observed carry-over from the ULOQ. LOD was not determined as LLOQ was limited by the carry-over. QC samples were prepared separately from the calibration standards at four levels (LLOQ-low-medium-high, 5-15-250-3750 ng/ml).
Due to the lack of reference materials, the six metabolites were semi-quantitatively determined using the calibration curve for dabrafenib. The bias caused by, among other things, differences in recovery and ionization efficiency was not corrected for. This bias is indicated by the addition of an asterisk to the units of metabolite concentrations.

[2] = cited from earlier work; for Variation of plasma concentration during a 12-h period: after a 150-mg dose of dabrafenib at steady state (day 15)
BRAFV600E = tested on: BRAFV600E; design: method as in earlier work; conditions: cited from earlier work
[3] = Clinical pharmacokinetics of dabrafenib (literature); assay type: in vivo, human; conditions: plasma
[4] = design: method as in PMID 22735384; conditions: phase III trial; cited from earlier work
[5] = Stability of dabrafenib in spiked whole blood, plasma and processed samples; assay type: in vitro ADME, human; conditions: for Concentration relative to nominal concentration (Rel): long term, −80 °C for 16 months
Experimental: Stability was evaluated at the low and high QC levels. Processed sample stability by re-injection of calibration and QC samples after 24 h at 5 °C. Freeze-thaw stability (n = 3) was determined for three freeze-thaw cycles at −80 °C. Short-term stability of dabrafenib was investigated in whole blood and plasma using spiked drug-free plasma (n = 2) stored at room temperature or 5 °C for 0, 24, 48, and 72 h, respectively. Long-term stability of dabrafenib (QC low, QC middle, and QC high; n = 3) was determined for a sample stored at −80 °C for 16 months. Accuracy within ±15% of the nominal value was required to consider dabrafenib stable under all conditions.

[6] = as above; assay type: in vitro ADME, human; conditions: 72 h 4°C
[7] = semi-quantification based on the calibration curve of dabrafenib
[8] = 14-17 h after last dose, semi-quantification based on the calibration curve of dabrafenib

For CC(C)(CO)c1nc(-c2cccc(NS(=O)(=O)c3c(F)cccc3F)c2F)c(-c2ccnc(N)n2)s1 [Hydroxy-Dab, hydroxy-dabrafenib], the “Plasma concentration in typical patient sample” value [1, 7] was 280 ng/mL, the “Diff (difference between the highest and lowest concentrations)” value [1] was 15-fold and the “Median C (plasma concentration)” value [1, 8] was 74^a ng/ml. For the same compound, the “Range of plasma concentration” value [1, 7] was “(19–278) ng/ml”, the “Variation of plasma concentration during a 12-h period” value [2] was 7 fold and the “IC50 relative to dabrafenib (fold higher)” value (BRAFV600E) was “approximately 3 fold”.

For CC(C)(C(=O)O)c1nc(-c2cccc(NS(=O)(=O)c3c(F)cccc3F)c2F)c(-c2ccnc(N)n2)s1 [Carboxy-Dab, carboxy-dabrafenib], the “Concentration reported by Falchook et al. relative to this study (fold higher)” value [3] was 8 fold, the “Plasma concentration in typical patient sample” value [1, 7] was 400 ng/mL and the “Diff (difference between the highest and lowest concentrations)” value [1] was 3-fold. The “Median C (plasma concentration)” value [1, 8] was 450^a ng/ml, the “Range of plasma concentration” value [1, 7] was “(230–690) ng/ml” and the “Variation of plasma concentration during a 12-h period” value [2] was “around 1.5 fold”.

In the case of CCCS(=O)(=O)Nc1ccc(F)c(C(=O)c2c[nH]c3ncc(-c4ccc(Cl)cc4)cc23)c1F [vemurafenib], the Inter-patient variability [2] is listed as 30–60%.

With C=C(C)c1nc(-c2cccc(NS(=O)(=O)c3c(F)cccc3F)c2F)c(-c2ccnc(N)n2)s1 [M31] the “Plasma concentration in typical patient sample” value [1, 7] was 550 ng/mL, the “Diff (difference between the highest and lowest concentrations)” value [1] was 4-fold and the “Median C (plasma concentration)” value [1, 8] was 400^a ng/ml. The “Range of plasma concentration” value [1, 7] was “(160–590) ng/ml”.

In the case of CC(C)c1nc(-c2cccc(NS(=O)(=O)c3c(F)cccc3F)c2F)c(-c2ccnc(N)n2)s1 [Desmethyl-Dab, desmethyl-dabrafenib], the “Plasma concentration in typical patient sample” value [1, 7] is reported as 660 ng/mL, the “Diff (difference between the highest and lowest concentrations)” value [1] is reported as 4-fold and the “Median C (plasma concentration)” value [1, 8] is reported as 400^a ng/ml. For the same compound, the “Range of plasma concentration” value [1, 7] was “(170–660) ng/ml”, the “Variation of plasma concentration during a 12-h period” value [2] was “around 1.5 fold” and the “IC50 relative to dabrafenib (fold higher)” value (BRAFV600E) was ~2 fold.

In the case of CC(C)(C)c1nc(-c2cccc(NS(=O)(=O)c3c(F)cccc3F)c2F)c(-c2ccnc(N)n2)s1 [Dabrafenib], the “Patients with adverse events of grade 2 or greater” value [4] is listed as 53%, the “Long-term stability in plasma” value ([5]; 16 months of storage at −80 °C) is listed as “stable” and the “Stability of processed samples” value ([5]; 24 h at 5 °C, stable = accuracy within ±15% of nominal) is listed as “stable”. For the same compound, the “Short-term stability in whole blood or plasma” value ([5]; 72 h at room temperature and at 5 °C, stable = accuracy within ±15% of nominal) was “stable”, the “Concentration relative to initial sample concentration (Rel)” value ([5]; plasma, High QC, 72 h 4°C) was 106% and the “Concentration relative to initial sample concentration (Rel)” value ([5]; plasma, High QC, 72 h RT) was 101%. The “Concentration relative to nominal concentration (Rel)” value ([5]; plasma, High QC) was 106%, the “Concentration relative to initial sample concentration (Rel)” value ([5]; plasma, High QC, three freeze-thaw cycles at −80 °C) was 96% and the “Concentration relative to initial sample concentration (Rel)” value ([5]; plasma, Low QC, 72 h RT) was 98%. For the same compound, the “Concentration relative to nominal concentration (Rel)” value ([5]; plasma, Low QC) was 101%, the “Concentration relative to initial sample concentration (Rel)” value ([5]; plasma, Low QC, three freeze-thaw cycles at −80 °C) was 98% and the “Concentration relative to initial sample concentration (Rel)” value ([5]; processed sample, High QC, 24 h 5°C) was 89%. The “Concentration relative to initial sample concentration (Rel)” value ([5]; processed sample, Low QC, 24 h 5°C) was 87%, the “Freeze-thaw stability in plasma” value ([5]; three freeze-thaw cycles) was “stable” and the “Concentration relative to initial sample concentration (Rel)” value ([5]; whole blood, High QC, 72 h RT) was 95%. The “Concentration relative to initial sample concentration (Rel)” value ([5]; whole blood, Low QC, 72 h RT) was 94%, the “Plasma concentration in lowest patient sample” value ([1]; Fig. 2) was 75 ng/mL and the “Plasma concentration in typical patient sample” value ([1]; quantitative) was 1400 ng/mL. For the same compound, the “Diff (difference between the highest and lowest concentrations)” value [1] was 19-fold, the “Median C (plasma concentration)” value ([1]; 14-17 h after last dose, 7 samples from 4 patients, quantitative) was 400 ng/mL and the “Range of plasma concentration” value ([1]; 14-17 h after last dose, quantitative) was “(75–1400) ng/ml”. The “Variation of plasma concentration during a 12-h period” value [2] was 16 fold, the “Inter-patient coefficient of variation (CV) in maximum concentration at steady state” value [2] was 73% and the Half-life ([2]; patients) was 4.8 h. The “Concentration relative to initial sample concentration (Rel)” value ([6]; plasma, Low QC) was 109%, the “Concentration relative to initial sample concentration (Rel)” value ([6]; whole blood, High QC) was 99% and the “Concentration relative to initial sample concentration (Rel)” value ([6]; whole blood, Low QC) was 99%.

In the case of C=C(COC1OC(C(=O)O)C(O)C(O)C1O)c1nc(-c2cccc(NS(=O)(=O)c3c(F)cccc3F)c2F)c(-c2ccnc(N)n2)s1 (stereo not drawn) [Gluc met], the “Plasma concentration in typical patient sample” value [1, 7] is reported as 32 ng/mL, the “Diff (difference between the highest and lowest concentrations)” value [1] is reported as 3-fold and the “Median C (plasma concentration)” value [1, 8] is reported as 38^a ng/ml. The “Range of plasma concentration” value [1, 7] was “(22–65)^b ng/ml”.
